Results as given in ChEMBL document CHEMBL3132831, “Hedgehog signalling pathway inhibitors as cancer suppressing agents” (Medchemcomm, 2014).
Each block holds one compound with its values, some of them ahead of it.

Legend:
[1] = Inhibition of SAG-induced hedgehog pathway in mouse SHH-LIGHT2 cells; type: cell-based
Sonic hedgehog protein [2] = biological target: T1, Sonic hedgehog protein (Mus musculus, UniProt Q62226); assay: Inhibition of SHh palmitoylation in mouse NIH3T3 cells; type: cell-based
Sonic hedgehog protein [3] = biological target: T1, Sonic hedgehog protein; assay: Inhibition of SHh in mouse NIH3T3 cells assessed as Gli activation; type: cell-based
Sonic hedgehog protein [4] = biological target: T1, Sonic hedgehog protein; assay: Inhibition of SHh in mouse LIGHT2 cells; type: cell-based
[5] = Inhibition of hedgehog pathway in mouse C3H10T1/2 cells assessed as alkaline phosphatase enzyme activity; type: cell-based; conditions: c3h 10t1/2
[6] = Cytotoxicity against human SK-N-BE(2) cells after 72 hrs by fluorometric microculture cytotoxicity assay; type: functional; conditions: SKNBE2, 72 h, pooled result: one value given for 7 cell lines, strains, targets or settings
[7] = Inhibition of SHH-mediated mouse C3H10T1/2 cell differentiation to osteoblasts; conditions: c3h 10t1/2
[8] = Decrease of cell density in human CCC cells at 50 nM up to 24 hrs; type: functional; design: scale not given: the % may be the effect or the level left
[9] = Antiproliferative activity against mouse medulloblastoma cells expressing wild type SMO; type: functional; conditions: Medulloblastoma cell
Protein smoothened = Protein smoothened (Homo sapiens, UniProt Q99835, D473H); assay: Inhibition of Smo D473H mutant (unknown origin) expressed in mouse C3H10T1/2 cells by luciferase assay; type: cell-based, C3H 10T1/2
Protein smoothened, sequence (Q99835 28-787 D473H limits assumed): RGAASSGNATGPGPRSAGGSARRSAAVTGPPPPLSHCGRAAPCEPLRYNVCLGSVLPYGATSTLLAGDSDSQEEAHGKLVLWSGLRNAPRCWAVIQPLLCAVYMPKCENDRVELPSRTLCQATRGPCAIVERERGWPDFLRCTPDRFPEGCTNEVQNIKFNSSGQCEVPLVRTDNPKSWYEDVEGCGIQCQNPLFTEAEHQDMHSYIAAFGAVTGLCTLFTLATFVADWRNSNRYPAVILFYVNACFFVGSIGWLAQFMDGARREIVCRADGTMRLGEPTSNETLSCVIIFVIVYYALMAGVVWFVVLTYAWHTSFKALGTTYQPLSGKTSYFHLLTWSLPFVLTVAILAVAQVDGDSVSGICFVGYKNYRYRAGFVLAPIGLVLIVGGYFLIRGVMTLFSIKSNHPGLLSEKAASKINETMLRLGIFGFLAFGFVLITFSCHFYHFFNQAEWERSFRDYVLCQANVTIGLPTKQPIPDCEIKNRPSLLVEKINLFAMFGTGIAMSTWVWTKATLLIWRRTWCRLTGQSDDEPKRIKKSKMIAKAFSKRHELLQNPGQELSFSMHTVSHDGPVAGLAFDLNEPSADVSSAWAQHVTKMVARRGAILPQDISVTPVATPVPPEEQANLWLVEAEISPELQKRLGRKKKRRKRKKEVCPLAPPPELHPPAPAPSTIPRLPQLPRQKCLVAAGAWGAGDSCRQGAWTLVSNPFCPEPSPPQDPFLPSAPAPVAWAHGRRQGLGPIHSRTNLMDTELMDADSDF

T1 sequence (Q62226 25-198 limits assumed): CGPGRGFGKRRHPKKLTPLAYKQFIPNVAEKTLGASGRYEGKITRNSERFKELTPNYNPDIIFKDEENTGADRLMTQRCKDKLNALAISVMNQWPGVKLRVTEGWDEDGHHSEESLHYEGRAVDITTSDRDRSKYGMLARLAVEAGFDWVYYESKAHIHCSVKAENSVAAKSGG

IC50 [1]: < 10000 nM
SMILES: COCCOC(=O)C1=C(C)NC2=C(C(=O)CC(c3ccccc3OC)C2)C1c1cccc(O)c1 (centres undefined)

IC50 [1]: < 10000 nM
SMILES: OCCNc1nc(N2CCN(c3ccccc3)CC2)nc2ccccc12

IC50 (Sonic hedgehog protein [2]): 10000 nM
IC50 (Sonic hedgehog protein [3]): 10000 nM
SMILES: CCC(C)CNCC(=O)N1CCc2sccc2C1COc1cccc(C)c1 (centres undefined)

IC50 (Sonic hedgehog protein [4]): 5 nM
SMILES: O=C(NN1CCN(c2nc(-c3cnc4ccccc4n3)no2)CC1)C1CCCCC1

IC50 (Sonic hedgehog protein [4]): 25 nM
SMILES: O=C(NN1CCN(c2nc(-c3ccc4ccccc4n3)no2)CC1)C1CCC(F)(F)CC1

IC50 [5]: 23 nM
SMILES: Clc1ccc(N2CCC(N3CCCC3)CC2)cc1-c1nc2ccccc2[nH]1

IC50 [1]: < 10000 nM
SMILES: COc1ccc(OC)c2c1cc1n2CC(C)(C(=O)NC2CCCCCCC2)N(CCN(C)C)C1=O (centres undefined)

The next lines start with the compound.

SMILES: N#C/C(C(=O)c1ccc(Cl)cc1Cl)=C1\NC(=O)c2ccccc2N1
IC50 [1]: < 10000 nM

SMILES: CN(C)c1ccccc1CN1CCCN(Cc2ccccc2N(C)C)C1c1ccncc1
GI50 [6]: 5820 nM

SMILES: CC1=C2C[C@H]3[C@@H](CCC4=CC(=O)CC[C@@]43C)[C@@H]2CC[C@@]2(C1)O[C@@H]1C[C@H](C)CN[C@H]1[C@H]2C
EC50 [7]: 200 nM

SMILES: C=C1CC[C@H](O)C/C1=C/C=C1\CCC[C@]2(C)[C@@H]([C@H](C)CCCC(C)C)CC[C@@H]12 [CHOLECALCIFEROL]
Activity [8]: <=90%

SMILES: CCC(C)n1ncn(-c2ccc(N3CCN(c4ccc(OCC5COC(Cn6cncn6)(c6ccc(Cl)cc6Cl)O5)cc4)CC3)cc2)c1=O (centres undefined) [ITRACONAZOLE]
IC50 [9]: 55 nM

SMILES: Cc1c(Cc2ccccc2)nnc(N2CCN(c3cnc(C(C)(C)O)cn3)[C@H](C)C2)c1C [LEQ506]
IC50 (Protein smoothened): < 100 nM
